Source: ChEMBL document CHEMBL1142361, “Phenylglycine and phenylalanine derivatives as potent and selective HDAC1 inhibitors (SHI-1)” (Bioorg Med Chem Lett, 2008)

Columns and labels:
HCT-116 = experiment: Antiproliferative activity against human HCT116 cells after 72 hrs; type: functional
[1] = molecular target: Voltage-gated inwardly rectifying potassium channel KCNH2 (Homo sapiens, UniProt Q12809); experiment: Inhibition of human ERG
Chain of Voltage-gated inwardly rectifying potassium channel KCNH2 (Q12809 whole entry): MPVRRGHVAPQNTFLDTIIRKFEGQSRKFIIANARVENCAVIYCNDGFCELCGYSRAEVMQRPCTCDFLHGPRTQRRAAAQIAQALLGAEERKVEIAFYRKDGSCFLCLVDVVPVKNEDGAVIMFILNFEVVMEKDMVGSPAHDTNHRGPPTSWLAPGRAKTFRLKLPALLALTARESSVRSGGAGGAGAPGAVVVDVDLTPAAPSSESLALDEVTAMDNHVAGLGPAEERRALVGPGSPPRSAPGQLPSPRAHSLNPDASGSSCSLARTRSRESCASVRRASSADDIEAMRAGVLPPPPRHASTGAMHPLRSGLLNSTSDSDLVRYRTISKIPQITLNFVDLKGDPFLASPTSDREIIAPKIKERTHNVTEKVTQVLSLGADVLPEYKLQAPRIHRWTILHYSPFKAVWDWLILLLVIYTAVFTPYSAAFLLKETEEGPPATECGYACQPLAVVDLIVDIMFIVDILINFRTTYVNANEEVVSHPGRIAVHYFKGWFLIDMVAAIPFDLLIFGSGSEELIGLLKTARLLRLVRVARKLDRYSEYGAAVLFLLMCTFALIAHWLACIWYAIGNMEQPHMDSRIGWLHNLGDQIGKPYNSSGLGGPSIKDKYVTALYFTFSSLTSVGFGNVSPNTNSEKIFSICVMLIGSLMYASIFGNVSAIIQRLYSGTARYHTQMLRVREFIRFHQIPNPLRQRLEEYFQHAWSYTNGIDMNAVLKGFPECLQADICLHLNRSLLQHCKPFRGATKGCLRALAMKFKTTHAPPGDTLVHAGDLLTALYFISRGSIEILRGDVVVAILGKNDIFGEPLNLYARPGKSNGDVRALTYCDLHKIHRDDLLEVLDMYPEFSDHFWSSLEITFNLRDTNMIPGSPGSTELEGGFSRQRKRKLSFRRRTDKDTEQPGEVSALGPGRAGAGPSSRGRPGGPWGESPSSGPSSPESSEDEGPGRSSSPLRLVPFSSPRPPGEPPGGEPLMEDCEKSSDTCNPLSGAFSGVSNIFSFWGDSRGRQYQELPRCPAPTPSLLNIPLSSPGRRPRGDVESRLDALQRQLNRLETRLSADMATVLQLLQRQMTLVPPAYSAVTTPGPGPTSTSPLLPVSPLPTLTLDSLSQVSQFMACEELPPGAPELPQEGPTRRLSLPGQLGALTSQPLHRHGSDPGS

SMILES | Activity (HCT-116) [nM] | IC50 [1] [µM]
CN(C)C(=O)C(N)c1ccc(C(=O)Nc2cc(-c3cccs3)ccc2N)cc1 (centres undefined) | 420 | –
CCOC(=O)C(N)c1ccc(C(=O)Nc2cc(-c3cccs3)ccc2N)cc1 (centres undefined) | 1100 | 5.7
Nc1ccc(-c2ccccc2)cc1NC(=O)c1ccccc1 | 1700 | –
CNC(=O)C(NC(C)=O)c1ccc(C(=O)Nc2cc(-c3cccs3)ccc2N)cc1 (centres undefined) | 620 | –
CNC(=O)[C@H](N)c1ccc(C(=O)Nc2cc(-c3cccs3)ccc2N)cc1 | 420 | –
CNC(=O)[C@@H](N)c1ccc(C(=O)Nc2cc(-c3cccs3)ccc2N)cc1 | 480 | –
NC(=O)[C@H](N)Cc1ccc(C(=O)Nc2cc(-c3cccs3)ccc2N)cc1 | 390 | –
NC(=O)[C@H](N)c1ccc(C(=O)Nc2cc(-c3cccs3)ccc2N)cc1 | 350 | –
